# Results reported in US7615527B2, “Peptides which modulate blood coagulation and methods of use thereof” (Oregon Health & Science University, priority 2001, dated 2009).
# Square brackets hold non-standard residues; d marks the D form. Ends that are not written are not given here. Peptide text beside a SMILES is read from it. pY = N[C@@H](Cc1ccc(OP(=O)(O)O)cc1)C(=O)O
# Legend:
# α-thrombin [1] = target: T1, α-thrombin (Homo sapiens, UniProt P00734); experiment: Competitive binding assay: α-thrombin binding to fluoresceinated γ′ 408-427 peptide; set-up: incubating 2 nM fluoresceinated peptide with 2 μM α-thrombin; thrombin: gift of Dr. John Fenton, II and Dr. Walter Kisiel; tracer peptide: Research Genetics; settings: 2 nM fluoresceinated peptide with 2 μM α-thrombin
# Description: Proteins, Peptides, and DNA Aptamers. Human α-thrombin was generously provided by Dr. John Fenton, II (New York State Department of Health, Albany, N.Y.) and Dr. Walter Kisiel (University of New Mexico, Albuquerque, N. Mex.). Human γ-thrombin was obtained from Haematologic Technologies, Inc. (Essex Junction, Vt.). Tyrosine-phosphorylated derivatives of peptides corresponding to the γ′ chain carboxyl terminus, […] (SEQ ID NO: 11), were obtained from Research Genetics, Inc. (Huntsville, Ala.) and GeneMed Synthesis, Inc. (South San Francisco, Calif.). The peptides were purified to >95% purity by HPLC, and their molecular weights were verified by mass spectrometry. Tyrosine-sulfated, amino-terminal acetylated hirudin peptide 53-65 was obtained from Bachem, Inc. (Torrance, Calif.) and tyrosine-sulfated hirudin peptide 54-65 was obtained from Sigma (St. Louis, Mo.). Single-stranded DNA aptamers 5′-GGT-TGG-TGT-GGT-TGG-3′ (SEQ ID NO: 5), referred to as HD1, and 5′-AGT-CCG-TGG-TAG-GGC-AGG-TTG-GGG-TGA-CT-3′ (SEQ ID NO: 6), referred to as HD22, were generously provided by Dr. Jeffrey I. Weitz (McMaster University, Hamilton, ONT, Canada). A monoclonal antibody directed against thrombin exosite II (34) was a gift from Dr. Douglas M. Tollefsen (Washington University, St. Louis, Mo.). Production of Recombinant Fibrinogens Recombinant fibrinogen molecules were expressed with tyrosine to phenylalanine mutations in the γ′ chain at positions γ′ 418 and/or γ′ 422. Plasmid pAG-γ′ (10) was used as the template for site-directed mutagenesis (35) using the primer GAA-ACA-GAA-TTT-GAC-TCA-CTT (SEQ ID NO: 7) for Y418F, GAC-TCA-CTT-TTC-CCT-GAG-GAT (SEQ ID NO: 8) for Y422F, and GAA-ACA-GAA-TTT-GAC-TCA-CTT-TTC-CCT-GAG-GAT (SEQ ID NO: 9) for Y418F/Y422F. The mutated pAG-γ′ plasmids were co-transfected with pBD-1 into a baby hamster kidney cell line as described previously (10). Recombinant fibrinogens were labeled with 1 mCi/ml ^35SO4 in serum-free medium and immunoprecipitated from the medium using a rabbit polyclonal anti-fibrinogen antiserum (Accurate Chemical and Scientific Corp., Westbury, N.Y.) as described previously (10). The amount of fibrinogen secreted during the labeling was determined using an ELISA described previously (10). Identical amounts of radiolabeled fibrinogens (300 ng) were resolved by SDS-polyacrylamide gel electrophoresis on 10% gels under reducing conditions (36) and exposed to X-ray film. Thrombin/γ′ Peptide Binding Assay. To quantitate the binding of thrombin to the γ′ chain carboxyl terminus, 50 nM […]-Y (PO3)-DSL-Y (PO3)—PEDDL (SEQ ID NO: 10) peptide (Research Genetics), corresponding to the carboxyl terminal twenty amino acids of the γ′ chain, was labeled for 1 hour at 37° C. with a 5-fold molar excess of fluorescein succinimidyl ester (PanVera) in 100 mM potassium phosphate, pH 7.0 as per the manufacturer's protocol. Unreacted fluorescein succinimidyl ester was reacted with 100 mM Tris, pH 8.0 for 30 minutes and removed by desalting the fluoresceinated peptide on Sephadex G-15 in 137 mM NaCl/2.7 mM KCl/10 mM HEPES, pH 7.4. 2 nM fluoresceinated peptide was incubated with the indicated concentrations of thrombin for 30 seconds at 22° C. in 50 μg/ml BSA/137 mM NaCl/2.7 mM KCl/10 mM HEPES, pH 7.4. Fluorescence polarization was measured following excitation at 488 nm and emission at 535 nm. The data are fit to the equation: y=x/(b+x) where y is fit to x, using “x” as the concentration of thrombin and “b” as the Kd.
# Competitive binding assays were performed by incubating 2 nM fluoresceinated peptide with 2 μM α-thrombin in the presence of the indicated concentrations of competing ligand. Fluorescence polarization was measured following excitation at 488 nm and emission at 535 nm.
# thrombin = thrombin (Homo sapiens, UniProt P00734); settings: prior studies by others (43); read-out: Ki, direct inhibitory activity towards thrombin; cited from earlier work
# α-thrombin [2] = target: T1, α-thrombin; experiment: Thrombin/γ′ peptide binding assay (fluorescence polarization); set-up: Human α-thrombin; gift: Dr. John Fenton, II (New York State Department of Health) and Dr. Walter Kisiel (University of New Mexico); settings: 2 nM fluoresceinated peptide, 22° C., pH 7.4, read-out: Kd, binding of α-thrombin to fluoresceinated γ′ 408-427 peptide
# Description: Proteins, Peptides, and DNA Aptamers. Human α-thrombin was generously provided by Dr. John Fenton, II (New York State Department of Health, Albany, N.Y.) and Dr. Walter Kisiel (University of New Mexico, Albuquerque, N. Mex.). Human γ-thrombin was obtained from Haematologic Technologies, Inc. (Essex Junction, Vt.). Tyrosine-phosphorylated derivatives of peptides corresponding to the γ′ chain carboxyl terminus, […] (SEQ ID NO: 11), were obtained from Research Genetics, Inc. (Huntsville, Ala.) and GeneMed Synthesis, Inc. (South San Francisco, Calif.). The peptides were purified to >95% purity by HPLC, and their molecular weights were verified by mass spectrometry. […] The amount of fibrinogen secreted during the labeling was determined using an ELISA described previously (10). […] To quantitate the binding of thrombin to the γ′ chain carboxyl terminus, 50 nM […]-Y (PO3)-DSL-Y (PO3)—PEDDL (SEQ ID NO: 10) peptide (Research Genetics), corresponding to the carboxyl terminal twenty amino acids of the γ′ chain, was labeled for 1 hour at 37° C. with a 5-fold molar excess of fluorescein succinimidyl ester (PanVera) in 100 mM potassium phosphate, pH 7.0 as per the manufacturer's protocol. […] Fluorescence polarization was measured following excitation at 488 nm and emission at 535 nm. […]
# α-thrombin [3] = target: T1, α-thrombin; experiment: Thrombin inhibition assay (ATIII, with or without heparin, Chromozym TH); type: biochemical; set-up: incubating 2 nM fluoresceinated peptide with 2 μM α-thrombin; thrombin: gift of Dr. John Fenton, II and Dr. Walter Kisiel; tracer peptide: Research Genetics
# Method: Thrombin Inhibition Assay. […] In some experiments, 0.33 μM heparin (Sigma) was included in the reaction. The inhibition reaction was terminated by the addition of 0.3 ml of a vast molar excess of substrate, 1.25 mg/ml Chromozym TH (Boehringer Mannheim, Indianapolis, Ind.), and the remaining thrombin activity was subsequently measured by monitoring the absorbance at 405 nm for 15 minutes at 22° C. Results Two Tyrosine Residues in the γ′ Chain Are Sulfated. […] Since the γ′ chain differs from the γA chain only in its carboxyl terminal 20 amino acids, it has been assumed that the sulfated residues are within this 20 amino acid sequence, although the addition of the γ′ sequence could also induce conformational changes in the γ chain that expose new sites for sulfation upstream of the carboxyl terminus. […] The carboxyl terminus of the γ′ chain contains two potential sites for tyrosine sulfation at positions γ′ Y418 and γ′ Y422. […] However, no direct evidence of sulfation at γ′ Y418 or γ′ Y422 was presented. Furthermore, in both bovine and rat fibrinogen, the γ′ chain terminates at the equivalent of γ′ 420, prior to γ′ Y422 (37, 38). The rat γ′ chain does, however, contain sulfotyrosine (39). […]
# [4] = test system: normal human reference plasma; experiment: Activated partial thromboplastin time (aPTT) assay in human plasma; type: biochemical; settings: human plasma; 0-1 mM peptide
# Method: Activated Partial Thromboplastin Time (aPTT) Assay. This anti-coagulation assay was chosen for testing the γ′ peptides due to its sensitivity to heparin-like compounds, its ease of use, and the ability to automate the procedure. An MLA 1600 instrument (Organon Teknika) was used to quantitate the effect of the γ′ peptides on the aPTT, using the manufacturer's protocol. Briefly, 0-1 mM γ′ peptides or 0-10 units/ml unfractionated heparin was added to 50 μl of normal reference plasma (Ortho) and manually loaded into the MLA 1600. The MLA 1600 added SynthASil aPTT reagent (Ortho) to initiate clotting, and clot formation was monitored spectrophotometrically for 106 seconds. […] Prothrombin Time/International Normalized Ratio Assay. This clotting assay is less sensitive to heparin than the aPTT, and may be used to determine if a γ′ peptide is capable of prolonging the prothrombin time (PT) to the same extent as the 3 aPTT. One-stage PT assays may be performed using an MLA 1600 instrument according to the manufacturer's protocol. Briefly, 0-1 mM γ′ peptide or scrambled peptide or 0-10 units/ml unfractionated heparin may be added to 50 μl of normal reference plasma (Ortho) and manually loaded into the MLA 1600. The MLA 1600 may be used to add recombinant thromboplastin (Recombiplastin, Ortho) to initiate clotting, and clot formation monitored spectrophotometrically for 106 seconds. If a clot is not generated within 106 seconds, the MLA will automatically extend the observation time to 212 seconds.
# An aPTT assay was performed using human plasma to determine the effect of γ′ peptide on the clotting time in this system. […] The MLA 1600 added SynthASil aPTT reagent (Ortho) to initiate clotting and clot formation was monitored spectrophotometrically for 106 seconds. […]
# An aPTT assay was performed using human plasma to determine the effect of γ′ deletion peptides on the clotting time in this system. […] The MLA 1600 added SynthASil aPTT reagent (Ortho) to initiate clotting and clot formation was monitored spectrophotometrically for 106 seconds. […]
Compound,Inhibition of α-thrombin binding to fluoresceinated γ′ 408-427 peptide (in words) (α-thrombin [1]),Anticoagulant effect in aPTT (in words) [4],also measured
VRPEHPAETEYDSLYPEDDL [nonphosphorylated peptide],completely inactive,,Ki (thrombin): 130000 nM
"5′-AGT-CCG-TGG-TAG-GGC-AGG-TTG-GGG-TGA-CT-3′ [HD22, reference compound]",more potent competitor than HD1,,
CC(C)C[C@H](NC(=O)[C@H](CC(=O)O)NC(=O)[C@H](CC(=O)O)NC(=O)[C@H](CCC(=O)O)NC(=O)[C@@H]1CCCN1C(=O)[C@H](Cc1ccc(OP(=O)(O)O)cc1)NC(=O)[C@H](CC(C)C)NC(=O)[C@H](CO)NC(=O)[C@H](CC(=O)O)NC(=O)[C@H](Cc1ccc(OP(=O)(O)O)cc1)NC(=O)[C@H](CCC(=O)O)NC(=O)[C@@H](NC(=O)[C@H](CCC(=O)O)NC(=O)[C@H](C)NC(=O)[C@@H]1CCCN1C(=O)[C@H](Cc1c[nH]cn1)NC(=O)[C@H](CCC(=O)O)NC(=O)[C@@H]1CCCN1C(=O)[C@H](CCCNC(=N)N)NC(=O)[C@@H](N)C(C)C)[C@@H](C)O)C(=O)O [γ′ 408-427] (H-VRPEHPAETE[pY]DSL[pY]PEDDL-OH; N-terminus and C-terminus assumed),,,"Ki (α-thrombin [1]; read-out: Ki, competition for α-thrombin binding to fluoresceinated γ′ 408-427 peptide): 520 ± 140 nM; Kd (α-thrombin [2]): 430 ± 80 nM; Effect on heparin's acceleration of thrombin inhibition by ATIII (α-thrombin [3]; 0.33 μM heparin, 13.7 nM ATIII, 0-1.0 mM γ′ peptide, 15 minutes): antagonized the accelerative activity of heparin in a dose-dependent manner; Direct inhibition of thrombin (α-thrombin [3]; concentrations up to 1 mM, data not shown): not directly inhibitory"

# The next lines start with results.
Inhibition of α-thrombin binding to fluoresceinated γ′ 408-427 peptide (in words) (α-thrombin [1]),Compound,Anticoagulant effect in aPTT (in words) [4],also measured
lower affinity,"VRPEHPAETEY(*)DSLY(*)PE (VRPEHPAETEYDSLYPE; not fully specified (residues 11, 15); printed as VRPEHPAETEY(*)DSLY(*)PE) [peptide 408-424]",,
lower affinity,"AETEY(*)DSLY(*)PEDDL (AETEYDSLYPEDDL; not fully specified (residues 5, 9); printed as AETEY(*)DSLY(*)PEDDL) [peptide 414-427]",reduced level of anticoagulant activity,
completely inactive,"EY(*)DSLY(*)PEDDL (EYDSLYPEDDL; not fully specified (residues 2, 6); printed as EY(*)DSLY(*)PEDDL) [peptide 417-427]",further reduction in activity,
